Drawing on ChEMBL document CHEMBL5291721, “A preclinical secondary pharmacology resource illuminates target-adverse drug reaction associations of marketed drugs” (Nat Commun, 2023), this text covers AC50 for eight compounds.

The target of one test is T1, Thromboxane A2 receptor (Homo sapiens, UniProt P21731).
T1 sequence (P21731 whole entry): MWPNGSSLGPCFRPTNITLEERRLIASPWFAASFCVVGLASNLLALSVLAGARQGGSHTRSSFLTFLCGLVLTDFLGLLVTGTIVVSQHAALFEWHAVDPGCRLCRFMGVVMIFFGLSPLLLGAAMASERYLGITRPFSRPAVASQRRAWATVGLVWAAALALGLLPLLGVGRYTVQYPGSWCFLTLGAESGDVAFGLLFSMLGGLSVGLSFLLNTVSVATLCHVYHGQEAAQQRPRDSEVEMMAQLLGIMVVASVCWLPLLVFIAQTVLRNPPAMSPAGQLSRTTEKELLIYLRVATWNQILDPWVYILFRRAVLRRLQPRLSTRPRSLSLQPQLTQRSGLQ
It counts as functional, cell-based.

The target in test [1] is T2, 5-hydroxytryptamine receptor 1A (Homo sapiens, UniProt P08908).
T2 sequence (P08908 whole entry): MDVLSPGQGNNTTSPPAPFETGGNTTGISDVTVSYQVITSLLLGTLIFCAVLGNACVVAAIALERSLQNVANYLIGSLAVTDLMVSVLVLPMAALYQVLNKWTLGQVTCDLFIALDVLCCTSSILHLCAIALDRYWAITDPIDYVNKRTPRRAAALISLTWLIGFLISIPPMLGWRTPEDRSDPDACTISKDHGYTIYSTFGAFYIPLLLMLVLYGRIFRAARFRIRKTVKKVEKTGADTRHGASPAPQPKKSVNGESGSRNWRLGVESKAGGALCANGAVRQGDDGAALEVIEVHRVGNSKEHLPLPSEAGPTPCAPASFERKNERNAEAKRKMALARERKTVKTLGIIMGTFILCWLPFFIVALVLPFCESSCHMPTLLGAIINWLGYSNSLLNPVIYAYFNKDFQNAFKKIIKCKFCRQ

In test [2] the target is Vascular endothelial growth factor receptor 2 (Homo sapiens, UniProt P35968). The class given is functional.
Chain of Vascular endothelial growth factor receptor 2 (P35968 whole entry): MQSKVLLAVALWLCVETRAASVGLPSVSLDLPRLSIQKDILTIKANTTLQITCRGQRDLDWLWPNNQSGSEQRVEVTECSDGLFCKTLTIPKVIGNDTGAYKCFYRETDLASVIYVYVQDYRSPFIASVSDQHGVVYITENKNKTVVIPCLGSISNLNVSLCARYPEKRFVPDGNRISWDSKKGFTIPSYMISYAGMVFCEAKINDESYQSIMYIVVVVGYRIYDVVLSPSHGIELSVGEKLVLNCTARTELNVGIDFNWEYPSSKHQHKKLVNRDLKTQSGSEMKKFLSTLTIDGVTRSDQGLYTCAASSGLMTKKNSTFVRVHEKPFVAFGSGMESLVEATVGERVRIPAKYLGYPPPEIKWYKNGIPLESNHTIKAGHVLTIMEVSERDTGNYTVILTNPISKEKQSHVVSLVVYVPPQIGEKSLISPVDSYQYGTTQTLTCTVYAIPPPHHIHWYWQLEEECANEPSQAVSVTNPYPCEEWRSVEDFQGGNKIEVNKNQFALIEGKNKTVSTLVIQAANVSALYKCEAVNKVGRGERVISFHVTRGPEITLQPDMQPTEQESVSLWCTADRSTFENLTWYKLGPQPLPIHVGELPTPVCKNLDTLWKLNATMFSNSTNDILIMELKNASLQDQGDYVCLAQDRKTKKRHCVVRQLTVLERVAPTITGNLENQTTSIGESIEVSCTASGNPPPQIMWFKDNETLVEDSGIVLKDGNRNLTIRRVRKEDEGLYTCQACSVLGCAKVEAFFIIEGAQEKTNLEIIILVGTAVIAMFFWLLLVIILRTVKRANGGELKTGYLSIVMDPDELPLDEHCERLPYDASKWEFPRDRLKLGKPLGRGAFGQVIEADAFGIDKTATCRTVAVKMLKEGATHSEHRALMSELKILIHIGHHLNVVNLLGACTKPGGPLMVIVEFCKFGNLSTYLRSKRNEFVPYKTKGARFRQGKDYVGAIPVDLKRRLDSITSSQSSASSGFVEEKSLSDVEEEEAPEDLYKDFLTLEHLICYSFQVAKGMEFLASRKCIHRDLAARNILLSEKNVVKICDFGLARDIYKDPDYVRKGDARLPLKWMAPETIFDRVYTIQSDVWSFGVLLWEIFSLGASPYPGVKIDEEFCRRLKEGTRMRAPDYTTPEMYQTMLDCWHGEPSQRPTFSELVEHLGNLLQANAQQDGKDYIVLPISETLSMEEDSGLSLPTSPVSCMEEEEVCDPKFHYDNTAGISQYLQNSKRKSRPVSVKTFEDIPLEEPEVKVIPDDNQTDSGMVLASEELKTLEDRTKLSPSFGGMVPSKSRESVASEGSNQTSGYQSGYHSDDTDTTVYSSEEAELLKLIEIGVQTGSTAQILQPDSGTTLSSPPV
In another test the target is D(3) dopamine receptor (Homo sapiens, UniProt P35462).
Chain of D(3) dopamine receptor (P35462 whole entry): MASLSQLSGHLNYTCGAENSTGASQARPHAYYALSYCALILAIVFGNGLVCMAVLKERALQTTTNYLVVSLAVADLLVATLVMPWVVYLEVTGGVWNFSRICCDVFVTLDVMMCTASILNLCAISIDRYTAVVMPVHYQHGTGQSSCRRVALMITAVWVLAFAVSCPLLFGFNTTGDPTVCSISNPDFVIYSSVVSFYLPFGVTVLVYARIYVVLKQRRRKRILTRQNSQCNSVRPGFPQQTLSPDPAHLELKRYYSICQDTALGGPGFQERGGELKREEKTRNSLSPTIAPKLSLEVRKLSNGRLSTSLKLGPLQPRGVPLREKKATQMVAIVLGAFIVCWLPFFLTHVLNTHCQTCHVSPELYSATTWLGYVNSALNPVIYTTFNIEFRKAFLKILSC
In another test the target is Prothrombin (Homo sapiens, UniProt P00734). It counts as functional.
Test [3] addresses Sodium-dependent noradrenaline transporter (Homo sapiens, UniProt P23975).
Test [4] concerns the target Sodium-dependent dopamine transporter (Homo sapiens, UniProt Q01959).
A further test concerns the target T3, Adenosine receptor A3 (Homo sapiens, UniProt P0DMS8).
T3 sequence (P0DMS8 whole entry): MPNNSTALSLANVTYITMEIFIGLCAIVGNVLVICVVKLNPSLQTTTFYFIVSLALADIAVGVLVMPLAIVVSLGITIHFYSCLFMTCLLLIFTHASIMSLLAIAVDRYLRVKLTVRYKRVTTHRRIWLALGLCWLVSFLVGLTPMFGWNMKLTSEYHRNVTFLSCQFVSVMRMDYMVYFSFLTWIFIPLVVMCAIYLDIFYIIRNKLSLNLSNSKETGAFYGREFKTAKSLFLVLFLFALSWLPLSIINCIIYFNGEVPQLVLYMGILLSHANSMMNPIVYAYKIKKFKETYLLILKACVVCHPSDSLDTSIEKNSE

A further test addresses Acetylcholinesterase (Homo sapiens, UniProt P22303). The class given is functional.
The target in test [5] is Prostaglandin G/H synthase 1 (Homo sapiens, UniProt P23219). The class given is functional.
Test [6] concerns the target 5-hydroxytryptamine receptor 2B (Homo sapiens, UniProt P41595). It counts as functional, cell-based.
Test [7] has as its target cGMP-inhibited 3',5'-cyclic phosphodiesterase 3A (Homo sapiens, UniProt Q14432). The class given is functional.
The target of test [8] is Sodium-dependent serotonin transporter (Homo sapiens, UniProt P31645).
Test [9] has as its target T4, Amine oxidase [flavin-containing] A (Homo sapiens, UniProt P21397).
T4 sequence (P21397 whole entry): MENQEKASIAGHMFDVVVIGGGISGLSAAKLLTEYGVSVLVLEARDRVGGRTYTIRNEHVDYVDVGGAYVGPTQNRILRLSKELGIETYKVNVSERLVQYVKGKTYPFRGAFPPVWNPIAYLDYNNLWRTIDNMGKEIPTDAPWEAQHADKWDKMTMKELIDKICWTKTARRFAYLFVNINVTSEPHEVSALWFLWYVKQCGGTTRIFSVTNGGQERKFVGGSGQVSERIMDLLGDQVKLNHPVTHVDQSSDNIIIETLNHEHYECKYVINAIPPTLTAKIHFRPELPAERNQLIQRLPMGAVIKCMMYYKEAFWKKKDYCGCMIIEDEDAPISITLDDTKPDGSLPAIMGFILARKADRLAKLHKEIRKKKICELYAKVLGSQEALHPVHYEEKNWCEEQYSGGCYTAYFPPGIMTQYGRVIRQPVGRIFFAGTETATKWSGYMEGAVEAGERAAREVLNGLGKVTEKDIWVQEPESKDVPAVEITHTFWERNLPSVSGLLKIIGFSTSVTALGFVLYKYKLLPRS
The class given is functional.

A further test has as its target T5, Estrogen receptor (Homo sapiens, UniProt P03372).
T5 sequence (P03372 whole entry): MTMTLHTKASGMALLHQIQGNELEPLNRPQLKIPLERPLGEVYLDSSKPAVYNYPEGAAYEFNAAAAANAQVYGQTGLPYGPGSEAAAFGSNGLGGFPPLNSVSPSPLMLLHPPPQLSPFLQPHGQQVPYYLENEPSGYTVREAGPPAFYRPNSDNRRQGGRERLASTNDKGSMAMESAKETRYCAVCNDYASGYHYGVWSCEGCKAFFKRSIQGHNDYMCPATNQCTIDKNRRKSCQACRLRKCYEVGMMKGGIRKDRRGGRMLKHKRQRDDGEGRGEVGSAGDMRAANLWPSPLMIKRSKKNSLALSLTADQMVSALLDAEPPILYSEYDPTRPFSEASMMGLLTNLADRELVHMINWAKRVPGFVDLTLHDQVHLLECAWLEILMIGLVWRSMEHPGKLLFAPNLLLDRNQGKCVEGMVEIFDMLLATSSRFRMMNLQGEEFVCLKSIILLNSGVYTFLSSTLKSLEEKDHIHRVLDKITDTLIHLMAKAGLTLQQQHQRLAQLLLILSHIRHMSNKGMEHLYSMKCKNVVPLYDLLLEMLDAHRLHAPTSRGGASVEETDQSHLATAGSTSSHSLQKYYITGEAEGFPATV

The target in test [10] is Voltage-gated inwardly rectifying potassium channel KCNH2 (Homo sapiens, UniProt Q12809). It counts as functional. Particulars: read-out: AC50.
Chain of Voltage-gated inwardly rectifying potassium channel KCNH2 (Q12809 whole entry): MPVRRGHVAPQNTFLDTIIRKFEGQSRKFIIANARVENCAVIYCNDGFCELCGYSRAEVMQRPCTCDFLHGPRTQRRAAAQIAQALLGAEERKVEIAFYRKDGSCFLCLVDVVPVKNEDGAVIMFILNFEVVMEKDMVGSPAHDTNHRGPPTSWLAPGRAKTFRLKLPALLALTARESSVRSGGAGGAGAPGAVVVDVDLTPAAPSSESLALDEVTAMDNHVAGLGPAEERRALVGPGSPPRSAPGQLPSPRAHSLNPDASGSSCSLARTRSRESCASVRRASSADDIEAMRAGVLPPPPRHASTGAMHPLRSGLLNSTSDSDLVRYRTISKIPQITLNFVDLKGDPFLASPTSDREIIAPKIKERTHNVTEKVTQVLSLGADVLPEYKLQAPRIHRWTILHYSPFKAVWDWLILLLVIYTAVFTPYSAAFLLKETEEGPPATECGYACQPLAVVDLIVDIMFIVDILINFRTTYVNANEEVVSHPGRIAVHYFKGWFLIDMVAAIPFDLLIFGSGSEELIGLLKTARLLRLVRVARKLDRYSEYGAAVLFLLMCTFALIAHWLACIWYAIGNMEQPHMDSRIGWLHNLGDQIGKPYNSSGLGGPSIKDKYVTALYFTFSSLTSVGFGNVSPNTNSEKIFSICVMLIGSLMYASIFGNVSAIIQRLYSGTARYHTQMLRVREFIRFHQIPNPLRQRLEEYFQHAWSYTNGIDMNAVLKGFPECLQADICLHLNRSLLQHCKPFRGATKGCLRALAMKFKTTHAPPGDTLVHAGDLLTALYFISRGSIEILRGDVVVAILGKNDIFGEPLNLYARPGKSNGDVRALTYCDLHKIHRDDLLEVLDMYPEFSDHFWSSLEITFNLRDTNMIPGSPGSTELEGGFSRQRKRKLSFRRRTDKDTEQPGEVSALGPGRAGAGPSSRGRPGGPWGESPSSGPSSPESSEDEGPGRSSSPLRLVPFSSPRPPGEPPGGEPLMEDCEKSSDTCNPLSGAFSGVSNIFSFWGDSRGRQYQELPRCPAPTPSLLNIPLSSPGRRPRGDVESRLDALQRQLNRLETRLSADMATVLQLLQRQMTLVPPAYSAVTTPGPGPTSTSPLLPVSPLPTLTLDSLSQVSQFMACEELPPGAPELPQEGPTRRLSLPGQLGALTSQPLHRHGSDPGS
Further: assay procedure not described here.

Chain of Sodium-dependent noradrenaline transporter (P23975 whole entry): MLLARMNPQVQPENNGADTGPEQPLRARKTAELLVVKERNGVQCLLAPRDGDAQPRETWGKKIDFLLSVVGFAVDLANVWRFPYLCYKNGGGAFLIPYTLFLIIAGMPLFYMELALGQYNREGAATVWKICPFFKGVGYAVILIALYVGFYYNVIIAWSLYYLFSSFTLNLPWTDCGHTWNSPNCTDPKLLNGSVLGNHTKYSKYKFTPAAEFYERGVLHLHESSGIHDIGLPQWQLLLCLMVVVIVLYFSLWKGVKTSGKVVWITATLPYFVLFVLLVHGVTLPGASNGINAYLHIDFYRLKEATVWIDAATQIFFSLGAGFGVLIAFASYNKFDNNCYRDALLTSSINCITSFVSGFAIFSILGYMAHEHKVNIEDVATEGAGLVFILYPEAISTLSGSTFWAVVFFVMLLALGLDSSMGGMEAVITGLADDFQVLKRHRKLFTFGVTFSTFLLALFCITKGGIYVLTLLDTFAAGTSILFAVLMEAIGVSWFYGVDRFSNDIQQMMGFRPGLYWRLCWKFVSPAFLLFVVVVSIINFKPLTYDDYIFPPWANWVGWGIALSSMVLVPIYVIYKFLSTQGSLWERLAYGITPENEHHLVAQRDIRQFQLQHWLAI
Chain of 5-hydroxytryptamine receptor 2B (P41595 whole entry): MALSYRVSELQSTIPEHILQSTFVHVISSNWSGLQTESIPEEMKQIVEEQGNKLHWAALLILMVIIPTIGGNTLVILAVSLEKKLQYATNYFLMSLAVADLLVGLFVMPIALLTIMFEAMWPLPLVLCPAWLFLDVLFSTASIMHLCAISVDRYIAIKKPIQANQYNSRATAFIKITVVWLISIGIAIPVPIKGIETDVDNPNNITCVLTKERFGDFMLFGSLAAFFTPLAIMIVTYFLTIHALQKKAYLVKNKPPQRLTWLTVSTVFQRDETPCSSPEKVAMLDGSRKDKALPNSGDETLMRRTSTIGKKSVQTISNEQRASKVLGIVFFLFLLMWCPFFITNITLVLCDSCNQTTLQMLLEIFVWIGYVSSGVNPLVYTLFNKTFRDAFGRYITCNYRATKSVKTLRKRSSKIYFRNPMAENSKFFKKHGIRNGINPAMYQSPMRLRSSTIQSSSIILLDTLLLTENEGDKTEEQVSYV
Chain of Sodium-dependent dopamine transporter (Q01959 whole entry): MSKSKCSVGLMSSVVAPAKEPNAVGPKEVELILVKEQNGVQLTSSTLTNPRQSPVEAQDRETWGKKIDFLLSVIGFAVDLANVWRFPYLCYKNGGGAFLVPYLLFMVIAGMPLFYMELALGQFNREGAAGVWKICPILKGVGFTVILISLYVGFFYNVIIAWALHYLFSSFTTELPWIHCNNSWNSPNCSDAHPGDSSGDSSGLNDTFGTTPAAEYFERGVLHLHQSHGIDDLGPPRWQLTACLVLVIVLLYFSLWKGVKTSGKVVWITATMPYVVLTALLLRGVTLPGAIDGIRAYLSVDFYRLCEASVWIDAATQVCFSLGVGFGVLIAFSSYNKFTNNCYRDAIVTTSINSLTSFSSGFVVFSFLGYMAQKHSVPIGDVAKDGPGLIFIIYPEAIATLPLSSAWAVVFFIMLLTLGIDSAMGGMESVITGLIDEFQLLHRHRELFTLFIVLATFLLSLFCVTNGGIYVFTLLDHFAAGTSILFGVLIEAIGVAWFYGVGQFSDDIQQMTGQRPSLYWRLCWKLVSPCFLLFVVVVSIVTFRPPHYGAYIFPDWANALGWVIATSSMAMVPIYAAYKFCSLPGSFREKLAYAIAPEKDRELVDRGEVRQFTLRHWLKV

On to `Cc1ccc2c([nH]c(=O)c3c(=O)cc(C(=O)OCCC(C)C)oc32)c1C`, for which the AC50 (on Thromboxane A2 receptor; in test [1]; in test [2]; on D(3) dopamine receptor; on Prothrombin; in test [3]) was more than 30 µM throughout. The AC50 in [4] is more than 30 µM; on Adenosine receptor A3 it was 0.0521 µM; at Acetylcholinesterase it was 6.76 µM; in test [5], more than 30 µM; in [6] it was more than 10 µM; in test [7], more than 30 µM. Further, the half-maximal activity concentration (AC50) is more than 30 µM in test [8], more than 30 µM in test [9], more than 30 µM at Estrogen receptor and 23 µM in test [10].

On to `COC(=O)N[C@H](C(=O)N1CC2(CC2)C[C@H]1c1ncc(-c2ccc3c(c2)C(F)(F)c2cc(-c4ccc5nc([C@@H]6[C@H]7CC[C@H](C7)N6C(=O)[C@@H](NC(=O)OC)C(C)C)[nH]c5c4)ccc2-3)[nH]1)C(C)C`, for which the AC50 at Thromboxane A2 receptor is more than 30 µM; in test [1], more than 30 µM; in [2], more than 30 µM; on D(3) dopamine receptor it was more than 10 µM; on Prothrombin, more than 30 µM; in [3], more than 30 µM. Also, the AC50 in test [4] is more than 30 µM; at Adenosine receptor A3, more than 10 µM; on Acetylcholinesterase, more than 30 µM; in [5], more than 30 µM; in test [6] it was more than 30 µM; in [7] it was more than 30 µM. Besides, the AC50 (in test [8]; in [9]; on Estrogen receptor; in [10]) was more than 30 µM each time.

For `Cc1cnc(C(=O)O)c[n+]1[O-]` [ACIPIMOX], the AC50 (at Thromboxane A2 receptor; in test [1]; in test [2]; on D(3) dopamine receptor; at Prothrombin; in test [3]) was more than 30 µM each time. The AC50 (in test [4]; at Adenosine receptor A3; on Acetylcholinesterase; in test [5]; in [6]; in [7]) was more than 30 µM each time. Moreover, the AC50 (in test [8]; in test [9]; at Estrogen receptor; in [10]) was more than 30 µM in each case.

In the case of `Nc1ccc(C(=O)NCC(=O)O)cc1` [AMINOHIPPURIC ACID], the AC50 (on Thromboxane A2 receptor; in test [1]; in test [2]; on D(3) dopamine receptor; on Prothrombin; in test [3]) was more than 30 µM throughout. Moreover, the AC50 (in [4]; on Adenosine receptor A3; on Acetylcholinesterase; in test [5]; in test [6]; in test [7]) was more than 30 µM each time. The AC50 (in test [8]; in test [9]; on Estrogen receptor; in test [10]) was more than 30 µM each time.

In the case of `CCCCC(=O)O[C@H]1CC[C@H]2[C@@H]3CCc4cc(O)ccc4[C@H]3CC[C@]12C` [ESTRADIOL VALERATE], the AC50 on Thromboxane A2 receptor was 23.1 µM; in [1], more than 30 µM; in [2], more than 30 µM; on D(3) dopamine receptor, more than 30 µM; on Prothrombin, more than 30 µM; in test [3], more than 30 µM. In addition, the AC50 in test [4] is more than 30 µM; at Adenosine receptor A3 it was 6.74 µM; on Acetylcholinesterase, more than 30 µM; in test [5], 7.05 µM; in test [6], more than 30 µM; in test [7] it was 23.9 µM. The AC50 in test [8] was more than 30 µM; in test [9] it was more than 30 µM; on Estrogen receptor, 0.0822 µM; in test [10], more than 30 µM.

For the compound `CCOc1ccc(Cc2nccc3cc(OCC)c(OCC)cc23)cc1OCC` [ETHAVERINE], the AC50 at Thromboxane A2 receptor was 14.1 µM; in test [1], more than 30 µM; in test [2], more than 30 µM; on D(3) dopamine receptor it was 25.5 µM; at Prothrombin it was more than 30 µM; in test [3] it was more than 30 µM. The AC50 in test [4] is more than 30 µM; at Adenosine receptor A3, 3.11 µM; on Acetylcholinesterase, more than 30 µM; in test [5], more than 30 µM; in test [6] it was more than 30 µM; in test [7] it was 3.69 µM. Besides, the AC50 in [8] is more than 30 µM; in test [9] it was more than 30 µM; on Estrogen receptor, more than 30 µM; in test [10], 13 µM.

On to `CC(C)(Oc1ccc(C(=O)c2ccc(Cl)cc2)cc1)C(=O)O` [FENOFIBRIC ACID], for which the AC50 (on Thromboxane A2 receptor; in test [1]; in test [2]; on D(3) dopamine receptor; on Prothrombin; in test [3]) was more than 30 µM in each case. Further, the AC50 (in [4]; at Adenosine receptor A3; at Acetylcholinesterase; in test [5]; in test [6]; in test [7]) was more than 30 µM in each case. For the same compound, the AC50 (in test [8]; in test [9]; on Estrogen receptor; in test [10]) was more than 30 µM each time.

`CN1CCc2c(c3ccccc3n2Cc2ccccc2)C1` [MEBHYDROLIN]: the AC50 on Thromboxane A2 receptor was more than 30 µM; in test [1], 1.04 µM; in [2] it was more than 30 µM; on D(3) dopamine receptor, 1.19 µM; on Prothrombin, more than 30 µM; in test [3] it was 8.13 µM. Moreover, the AC50 is 0.334 µM in [4]; more than 30 µM at Adenosine receptor A3; more than 30 µM at Acetylcholinesterase; more than 30 µM in [5]; more than 30 µM in [6]; more than 30 µM in [7]. Further, the AC50 in test [8] was 28.5 µM; in test [9] it was more than 30 µM; on Estrogen receptor, more than 30 µM; in test [10], 1 µM.
